Laboratory results taken from PMC12596758 (Clinical pharmacology and therapeutics, 2025).
Read-outs that look alike come from different tables or passages of the source.

Key:
OCT2 = details: read-out: IC50 for OCT2; cited from earlier work
[1] = tested on: nicotinamide N-methyltransferase, NNMT; details: cited from earlier work
aldehyde oxidase, AO = details: cited from earlier work
[2] = for relative plasma concentrations between study arms: targeted analysis, baseline vs cimetidine exposure
OCT1 [3] = details: potent OCT1 inhibitor new chemical entity vs placebo, healthy adults; cited from earlier work
[4] = excreted unchanged into urine; cited from earlier work
[5] = rats, cimetidine 100 mg/kg intraperitoneally; cited from earlier work
[6] = cited from earlier work
Oct1 [7] = details: Oct1 knockout mice vs wild-type mice, single oral dose of metformin; cited from earlier work
clinical = details: both, human, po; for Cmax: plasma
[8] = pyrimethamine 75 mg, healthy adults; cited from earlier work
[9] = cimetidine 400 mg vs baseline, healthy adults
[10] = decrease with cimetidine 400 mg vs baseline, healthy adults
[11] = increase with cimetidine 400 mg vs baseline, healthy adults
[12] = cimetidine 400 mg vs baseline, healthy adults, listed as NMA

## CN/C(=N/CCSCc1nc[nH]c1C)NC#N [Cimetidine, cimetidine]
OCT2
  IC50: 23.6 to 207 µM
[1]
  inhibition of NNMT activity: does not inhibit
Aldehyde oxidase, AO
  inhibition of AO activity: does not inhibit

## CC(C)C(=O)O[C@H](CC(=O)[O-])C[N+](C)(C)C [Isobutyryl-L-carnitine, isobutyryl-L-carnitine]
[2]; [9]
  AUC(0–4 h), effect of cimetidine exposure vs baseline (in words): did not differ
  AUC(0–24 h), effect of cimetidine exposure vs baseline (in words): did not differ
  Cmax, effect of cimetidine exposure vs baseline (in words): did not differ
[2]; [10]
  AUC(0–24 h) %Change (cimetidine exposure/baseline), decrease (↓): 4% (↓)
  Cmax %Change (cimetidine exposure/baseline), decrease (↓): 6% (↓)
OCT1 [3]
  decrease in plasma exposure: 35%

## CN(C)C(=N)N=C(N)N [Metformin]
[2]; MATE1 c.−66T>C (rs2252281), baseline arm, p = 0.042
  higher AUC(0–24 h), group TT compared to heterozygous group TC: 1.42 fold
[2]; [10]
  CLr,b %Change (cimetidine exposure/baseline), decrease (↓): 17% (↓)
[2]; decrease with cimetidine 400 mg vs baseline, healthy adults, CLr based on 0–24 h
  CLr,a %Change (cimetidine exposure/baseline), decrease (↓): 8% (↓)
[2]; from the observed CLr decrease
  Renal OCT2 alone (AUC(0–24 h)) % Change Observed data, increase (↑): 8% (↑)
[2]; [11]
  AUC(0–24 h) %Change (cimetidine exposure/baseline), increase (↑): 24% (↑)
  Ae(0–4 h) %Change (cimetidine exposure/baseline), increase (↑): 4% (↑)
[2]; increase with cimetidine 400 mg vs baseline, healthy adults, listed as metformin
  AUC(0–24 h) %Change (cimetidine exposure/baseline), increase (↑): 24%
[2]; individuals homozygous for OCT1 c.480G>C (p.Leu160Phe, rs683369), p = 0.006
  increase in Cmax with cimetidine treatment: 48%
[2]; individuals homozygous for OCT1 c.480G>C (p.Leu160Phe, rs683369), p = 0.025
  increase in AUC(0–24 h) with cimetidine treatment: 33%
[2]; participants homozygous for OCT2 c.1506C>T (p.Val502=, rs316003), p = 0.022
  increase in AUC(0–24 h) with cimetidine: 27%
[2]; participants homozygous for OCT2 c.518+32G>C (rs2774230) or c.1506C>T (rs316003)
  reduction in CLr,a with cimetidine: 9%
[2]; participants homozygous for OCT2 c.518+32G>C (rs2774230), p = 0.013
  increase in AUC(0–24 h) with cimetidine: 35%
[4]
  share of urinary excretion through glomerular filtration: 25%
  share of urinary excretion through renal secretion: 75%
[5]
  increase in metformin blood concentrations: 3.2 fold
  reduction in CLr: 73%
[6]; oral metformin 250–500 mg with cimetidine, healthy adults
  decrease in CLr: 27–45%
[6]; similar cimetidine dosing regimen (400 mg), not statistically significant, ref 26 (Koishikawa et al.)
  reduction in metformin CLr: 15%
Oct1 [7]
  reduction of hepatic metformin concentration: 3.4 fold
clinical
  Cmax: 168 ng/mL
clinical; 50 mg
  Cmax: 124 ng/mL

## Cn1cnc2c(ncn2[C@@H]2O[C@H](CO)[C@@H](O)[C@H]2O)c1=N [N1-Methyladenosine, N1-methyladenosine]
[2]; [9]
  AUC(0–4 h), effect of cimetidine exposure vs baseline (in words): comparable
  AUC(0–24 h), effect of cimetidine exposure vs baseline (in words): comparable
  Ae(0–4 h), effect of cimetidine exposure vs baseline (in words): comparable
  Ae(0–24 h), effect of cimetidine exposure vs baseline (in words): comparable
  CLr,a, effect of cimetidine exposure vs baseline (in words): No change
  CLr,b, effect of cimetidine exposure vs baseline (in words): comparable
  Cmax, effect of cimetidine exposure vs baseline (in words): No change
[2]; [12]
  CLr,a, effect of cimetidine exposure vs baseline (in words): comparable
  Cmax, effect of cimetidine exposure vs baseline (in words): comparable
[2]; [10]
  AUC(0–4 h) %Change (cimetidine exposure/baseline), decrease (↓): 5% (↓)
  AUC(0–24 h) %Change (cimetidine exposure/baseline), decrease (↓): 5% (↓)
  Ae(0–24 h) %Change (cimetidine exposure/baseline), decrease (↓): 4% (↓)
[2]; [11]
  Ae(0–4 h) %Change (cimetidine exposure/baseline), increase (↑): 44% (↑)
  CLr,b %Change (cimetidine exposure/baseline), increase (↑): 53% (↑)
[8]
  reduction in CLr: 47%
clinical; plasma and urine
  CL renal: 68.3 mL/min
clinical
  Cmax: 2.6 ng/mL
clinical; 50 mg
  Cmax: 2.6 ng/mL

## C[n+]1cccc(C(=O)O)c1 [N1-methyl nicotinic acid]
[2]
  relative plasma concentrations between study arms: no significant differences

## CC(=O)OCC[N+](C)(C)C [acetylcholine]
[2]
  relative plasma concentrations between study arms: no significant differences

## C[N+](C)(C)CC(O)CC(=O)[O-] (stereo not drawn) [carnitine]
[2]
  relative plasma concentrations between study arms: no significant differences

## C[N+](C)(C)CCO [choline]
[2]
  relative plasma concentrations between study arms: no significant differences

## C[N+](C)(C)CC(=O)[O-] [glycine betaine]
[2]
  relative plasma concentrations between study arms: no significant differences

## N[C@@H](Cc1c[nH]c2ccccc12)C(=O)O [tryptophan]
[2]
  relative plasma concentrations between study arms: no significant differences
